Read-outs that look alike come from different tables or passages of the source.
How the values were obtained:
[1] = target: T1, BuChE from equine serum (Equus caballus, UniProt P81908); experiment: biochemical
T1 construct: BuChE from equine serum; purchased Sigma-Aldrich (Steinheim, Germany); host or cells: equine serum

[2] = target: AChE (E.C. 3.1.1.7, Type V-S, from electric eel) (Electrophorus electricus, UniProt O42275); experiment: biochemical
Sequence of AChE (E.C. 3.1.1.7, Type V-S, from electric eel) (O42275 24-633): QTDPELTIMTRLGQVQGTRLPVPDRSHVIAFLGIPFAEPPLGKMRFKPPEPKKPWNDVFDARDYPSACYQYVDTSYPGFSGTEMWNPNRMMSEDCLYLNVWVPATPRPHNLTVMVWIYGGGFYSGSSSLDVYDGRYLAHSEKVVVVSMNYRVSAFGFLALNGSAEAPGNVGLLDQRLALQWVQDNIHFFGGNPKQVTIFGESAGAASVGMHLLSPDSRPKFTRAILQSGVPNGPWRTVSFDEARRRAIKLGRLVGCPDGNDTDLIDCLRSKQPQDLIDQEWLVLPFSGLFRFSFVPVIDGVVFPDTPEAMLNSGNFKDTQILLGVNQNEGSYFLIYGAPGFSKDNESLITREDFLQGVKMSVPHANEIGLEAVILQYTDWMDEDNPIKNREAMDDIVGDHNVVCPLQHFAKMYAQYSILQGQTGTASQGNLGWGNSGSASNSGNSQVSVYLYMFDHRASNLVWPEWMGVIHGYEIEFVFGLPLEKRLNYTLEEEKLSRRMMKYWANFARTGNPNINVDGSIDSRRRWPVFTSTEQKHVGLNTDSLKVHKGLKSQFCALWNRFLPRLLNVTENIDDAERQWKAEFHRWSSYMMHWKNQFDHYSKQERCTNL

T1 sequence (P81908 whole entry): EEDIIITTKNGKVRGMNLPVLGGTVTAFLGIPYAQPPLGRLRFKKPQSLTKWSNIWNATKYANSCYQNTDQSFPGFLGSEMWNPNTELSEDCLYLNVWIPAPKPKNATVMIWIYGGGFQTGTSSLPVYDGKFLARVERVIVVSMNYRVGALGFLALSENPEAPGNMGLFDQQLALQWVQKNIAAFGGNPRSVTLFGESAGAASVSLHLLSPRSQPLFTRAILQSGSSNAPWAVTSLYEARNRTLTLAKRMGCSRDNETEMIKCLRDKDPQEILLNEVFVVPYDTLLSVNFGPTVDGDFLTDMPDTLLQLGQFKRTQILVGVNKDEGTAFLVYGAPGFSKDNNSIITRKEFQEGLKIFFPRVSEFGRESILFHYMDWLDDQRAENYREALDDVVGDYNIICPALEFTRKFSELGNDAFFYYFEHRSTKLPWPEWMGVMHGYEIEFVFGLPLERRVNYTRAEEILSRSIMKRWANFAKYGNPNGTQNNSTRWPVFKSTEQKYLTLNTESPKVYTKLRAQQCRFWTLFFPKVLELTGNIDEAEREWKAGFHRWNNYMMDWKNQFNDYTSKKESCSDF

SMILES	IC50 [1]	IC50 [2]	IC50 ([1]; Ellman's method, 25°C, pH 8.0, 15 min pre-incubation, mean ± SD of three independent experiments, read-out: BuChE (IC50 ± SD))
COc1cc2c(cc1OC)C(=O)/C(=C/c1cc[n+](Cc3ccccc3)cc1)O2 [5a, (Z)-1-Benzyl-4-((5,6-dimethoxy-3-oxobenzofuran-2(3H)-ylidene)methyl) pyridinium bromide]	1400 ± 85 nM	86 ± 10.9 nM	–
COc1cc2c(cc1OC)C(=O)/C(=C/c1cc[n+](Cc3ccc(C)cc3)cc1)O2 [5g, (Z)-1-(4-Methylbenzyl)-4-((5,6-dimethoxy-3-oxobenzofuran-2(3H)-ylidene)methyl) pyridinium chloride]	–	514 ± 29.5 nM	7600 ± 260 nM
